US10526314B2, “Hydroxyalkyl-substituted heteroaryltriazole derivatives and uses thereof” (BAYER AKTIENGESELLSCHAFT, priority 2016, dated 2020)

Assays:
human V2 receptor = target: T1, human V2 receptor (Homo sapiens, UniProt P30518); assay: Cellular in vitro assay for determining vasopressin receptor activity (V2, CRE-luciferase); format: cell-based; conditions: CHO cell line transfected with human V2 receptor; [Arg8]-vasopressin at EC50 concentration; read-out: IC50 hV2
T1 construct: expressed in transfected cells; host or cells: CHO K1 (ATCC) expressing firefly luciferase under a CRE-responsive promoter
T1 sequence (P30518 whole entry): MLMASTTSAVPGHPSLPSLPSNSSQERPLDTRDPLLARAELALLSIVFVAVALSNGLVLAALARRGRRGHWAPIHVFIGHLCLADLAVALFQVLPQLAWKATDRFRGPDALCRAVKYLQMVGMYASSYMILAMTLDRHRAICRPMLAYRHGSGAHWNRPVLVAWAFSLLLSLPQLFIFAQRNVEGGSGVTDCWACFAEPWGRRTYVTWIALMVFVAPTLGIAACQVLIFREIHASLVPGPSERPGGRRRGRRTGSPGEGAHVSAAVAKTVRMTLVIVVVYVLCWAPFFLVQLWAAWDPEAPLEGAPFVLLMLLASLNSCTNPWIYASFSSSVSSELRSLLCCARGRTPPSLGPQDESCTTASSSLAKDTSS
Method: (§1) B-1. Cellular In Vitro Assay for Determining Vasopressin Receptor Activity
(§2) The identification of agonists and antagonists of the V1a and V2 vasopressin receptors from humans, rats and dogs as well as the quantification of the activity of the compounds of the invention is carried out using recombinant cell lines. These cell lines originally derive from a hamster's ovary epithelial cell (Chinese Hamster Ovary, CHO K1, ATCC: American Type Culture Collection, Manassas, Va. 20108, USA). The test cell lines constitutively express the human, rat or dog V1a or V2 receptors. In case of the Gαq-coupled V1a receptors, cells are also stably transfected with a modified form of the calcium-sensitive photoproteins aequorin (human and rat V1a) or obelin (dog V1a), which, after reconstitution with the cofactor coelenterazine, emit light when there are increases in free calcium concentrations [Rizzuto R, Simpson A W, Brini M, Pozzan T, Nature 358, 325-327 (1992); Illarionov B A, Bondar V S, Illarionova V A, Vysotski E S, Gene 153 (2), 273-274 (1995)]. The resulting vasopressin receptor cells react to stimulation of the recombinantly expressed V1a receptors by intracellular release of calcium ions, which can be quantified by the resulting photoprotein luminescence. The Gs-coupled V2 receptors are stably transfected into cell lines expressing the gene for firefly luciferase under control of a CRE-responsible promoter. Activation of V2 receptors induces the activation of the CRE-responsive promoter via cAMP increase, thereby inducing the expression of firefly luciferase. The light emitted by photoproteins of V1a cell lines as well as the light emitted by firefly luciferase of V2 cell lines corresponds to the activation or inhibition of the respective vasopressin receptor. The bioluminescence of the cell lines is detected using a suitable luminometer [Milligan G, Marshall F, Rees S, Trends in Pharmacological Sciences 17, 235-237 (1996)].
Vasopressin V2 Receptor Cell Lines:
On the day before the assay, the cells are plated out in culture medium (DMEM/F12, 2% FCS, 2 mM glutamine, 10 mM HEPES) in 384-well microtiter plates and kept in a cell incubator (96% humidity, 5% v/v CO2, 37° C.). On the day of the assay, test compounds in various concentrations and the agonist [Arg^8]-vasopressin at EC50 concentration are added together to the wells, and plates are incubated for 3 hours in a cell incubator. Upon addition of the cell lysis reagent Triton™ and the substrate luciferin, luminescence of firefly luciferase is measured in a luminometer.
(§3) Table 1A below lists individual IC50 values for the compounds of the invention (including racemic mixtures as well as separated enantiomers) that were obtained from cell lines transfected with the human V1a or V2 receptor: […]

human V1a receptor = target: T2, human V1a receptor (Homo sapiens, UniProt P37288); assay: Cellular in vitro assay for determining vasopressin receptor activity (V1a, aequorin luminescence); format: cell-based; conditions: for IC50: CHO cell line transfected with human V1a receptor, [Arg8]-vasopressin at EC50 concentration, read-out: IC50 hV1a; for ratio IC50 hV2/hV1a: selectivity ratio IC50 hV2 / IC50 hV1a
T2 construct: expressed in transfected cells; host or cells: CHO K1 (ATCC), also stably transfected with a modified aequorin
T2 sequence (P37288 whole entry): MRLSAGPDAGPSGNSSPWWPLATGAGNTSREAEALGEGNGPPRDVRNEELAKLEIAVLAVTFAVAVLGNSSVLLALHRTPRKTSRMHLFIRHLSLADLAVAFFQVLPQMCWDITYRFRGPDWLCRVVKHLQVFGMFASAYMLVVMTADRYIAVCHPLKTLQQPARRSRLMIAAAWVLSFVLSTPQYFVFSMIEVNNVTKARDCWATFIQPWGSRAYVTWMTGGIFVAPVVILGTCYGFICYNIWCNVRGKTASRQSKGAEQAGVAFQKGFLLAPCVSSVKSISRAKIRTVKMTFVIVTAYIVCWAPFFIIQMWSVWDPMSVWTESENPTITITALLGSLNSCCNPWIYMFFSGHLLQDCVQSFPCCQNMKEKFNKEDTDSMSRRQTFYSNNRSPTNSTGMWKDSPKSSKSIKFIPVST
Method: as §1, §2
Vasopressin V1a Receptor Cell Lines:
On the day before the assay, the cells are plated out in culture medium (DMEM/F12, 2% FCS, 2 mM glutamine, 10 mM HEPES, 5 μg/ml coelenterazine) in 384-well microtiter plates and kept in a cell incubator (96% humidity, 5% v/v CO2, 37° C.). On the day of the assay, test compounds in various concentrations are placed for 10 minutes in the wells of the microtiter plate before the agonist [Arg^8]-vasopressin at EC50 concentration is added. The resulting light signal is measured immediately in a luminometer.
as §3

## CC(O)c1nc(Cn2nc(-c3ccc(Cl)cc3)n(C[C@H](O)C(F)(F)F)c2=O)nn1-c1cccnc1 (mixture of isomers) [Example 24]
Human V2 receptor
  IC50: 773 nM
Human V1a receptor
  IC50: 49.1 nM
  ratio IC50 hV2/hV1a: 15.8

## CC(O)c1nc(Cn2nc(-c3ccc(Cl)cc3)n(C[C@H](O)C(F)(F)F)c2=O)nn1-c1cncc(Cl)c1 (mixture of isomers) [Example 27, 5-(4-Chlorophenyl)-2-({1-(5-chloropyridin-3-yl)-5-(1hydroxyethyl)-1H-1,2,4triazol-3-yl}methyl)-4-[(2S)-3,3,3-trifluoro-2-hydroxypropyl]-2,4-dihydro-3H-1,2,4-triazol-3-one]
Human V2 receptor
  IC50: 18.7 nM
Human V1a receptor
  IC50: 12.3 nM
  ratio IC50 hV2/hV1a: 1.5

## CC(O)c1nc(Cn2nc(-c3ccc(Cl)cc3)n(C[C@H](O)C(F)(F)F)c2=O)nn1-c1cccnc1 (single isomer, unassigned) [Example 25]
Human V2 receptor
  IC50: 240 nM
Human V1a receptor
  IC50: 90.8 nM
  ratio IC50 hV2/hV1a: 2.6

## CC(O)c1nc(Cn2nc(-c3ccc(Cl)cc3)n(C[C@H](O)C(F)(F)F)c2=O)nn1-c1cccnc1 (single isomer, unassigned) [Example 26]
Human V2 receptor
  IC50: 325 nM
Human V1a receptor
  IC50: 34.3 nM
  ratio IC50 hV2/hV1a: 9.5

## CC(O)c1nc(Cn2nc(-c3ccc(Cl)cc3)n(C[C@H](O)C(F)(F)F)c2=O)nn1-c1cncc(Cl)c1 (single isomer, unassigned) [Example 28]
Human V2 receptor
  IC50: 51.7 nM
Human V1a receptor
  IC50: 20.6 nM
  ratio IC50 hV2/hV1a: 2.5

## CC(O)c1nc(Cn2nc(-c3ccc(Cl)cc3)n(C[C@H](O)C(F)(F)F)c2=O)nn1-c1cncc(Cl)c1 (single isomer, unassigned) [Example 29]
Human V2 receptor
  IC50: 15.2 nM
Human V1a receptor
  IC50: 7.71 nM
  ratio IC50 hV2/hV1a: 2.0

## C[C@@H](O)c1nc(Cn2nc(-c3ccc(Cl)cc3)n(C[C@H](O)C(F)(F)F)c2=O)nn1-c1cnccc1Cl [Example 1, 5-(4-Chlorophenyl)-2-({1-(4-chloropyridin-3-yl)-5-[(1R)-1-hydroxyethyl]-1H-1,2,4-triazol-3-yl}methyl)-4-[(2S)-3,3,3-trifluoro-2-hydroxypropyl]-2,4-dihydro-3H-1,2,4-triazol-3-one]
Human V2 receptor
  IC50: 16 nM
Human V1a receptor
  IC50: 0.49 nM
  ratio IC50 hV2/hV1a: 32.6

## C[C@H](O)c1nc(Cn2nc(-c3ccc(Cl)cc3)n(C[C@H](O)C(F)(F)F)c2=O)nn1-c1cnccc1Cl [Example 2, 5-(4-Chlorophenyl)-2-({1-(4-chloropyridin-3yl)-5-[(1S)-1-hydroxyethyl]-1H-1,2,4-triazol-3-yl}methyl)-4-[(2S)-3,3,3-trifluoro-2-hydroxypropyl]-2,4-dihydro-3H-1,2,4-triazol-3-one]
Human V2 receptor
  IC50: 5.65 nM
Human V1a receptor
  IC50: 0.53 nM
  ratio IC50 hV2/hV1a: 10.7

## C[C@H](O)c1nc(Cn2nc(-c3ccc(Cl)cc3)n(C[C@H](O)C(F)(F)F)c2=O)nn1-c1ncccc1Cl [Example 3, 5-(4-Chlorophenyl)-2-({1-(3-chloropyridin-2-yl)-5-[(1S)-1-hydroxyethyl]-1H-1,2,4-triazol-3-yl}methyl)-4-[(2S)-3,3,3-trifluoro-2-hydroxypropyl]-2,4-dihydro-3H-1,2,4-triazol-3-one]
Human V2 receptor
  IC50: 8.07 nM
Human V1a receptor
  IC50: 0.57 nM
  ratio IC50 hV2/hV1a: 14.2

## C[C@@H](O)c1nc(Cn2nc(-c3ccc(Cl)cc3)n(C[C@H](O)C(F)(F)F)c2=O)nn1-c1c(Cl)cncc1Cl [Example 4, 5-(4-Chlorophenyl)-2-({1-(3,5-dichloropyridin-4-yl)-5-[(1R)-1-hydroxyethyl]-1H-1,2,4-triazol-3-yl}methyl)-4-[(2S)-3,3,3-trifluoro-2-hydroxypropyl]-2,4-dihydro-3H-1,2,4-triazol-3-one]
Human V2 receptor
  IC50: 8.65 nM
Human V1a receptor
  IC50: 1.3 nM
  ratio IC50 hV2/hV1a: 6.7
